US20180360767A1, “BIOCOMPATIBLE PARTICLES AND METHODS OF MAKING AND USE THEREOF” (priority 2015, published 2018)

Key:
in vivo = settings: mouse, iv, 2 mg/kg
[1] = Pharmacokinetics, doxorubicin concentration in blood plasma after intravenous injection; settings: mouse, 2 mg/kg
[2] = test system: doxorubicin-resistant HeLa cells; assay: In vitro cytotoxicity on doxorubicin-resistant cells; type: cell-based; settings: even at a concentration of 5 mg L^−1
Method: Next, the cytotoxicity of doxorubicin-loaded nanospheres towards HeLa cells was evaluated with 3-(4, 5-dimethylthiazol-2-yl)-2, 5-diphenyltetrazolium bromide (MTT) assay. HeLa cells (1×10^4 cells per well) were seeded in the 96-well plates. After culture for 24 h, the cells were exposed to the doxorubicin solution and doxorubicin-loaded liquid metal nanoparticles with different concentrations of doxorubicin for 24 h, followed by adding 20 μl of the MTT solution (5 mg mL^−1). After 4 h of incubation, the medium was removed, and the cells were mixed with 150 μl of dimethyl sulfoxide. The absorbance was measured at a test wavelength of 570 nm and a reference wavelength of 630 nm by a microplate reader (Infinite M200 PRO, Tecan).
Next, the in vitro cytotoxicity of doxorubicin loaded ligand-capped liquid metal nanoparticles towards doxorubicin-resistant HeLa cells was investigated.

Cmax (in vivo): 1450 ± 60 ng/mL | MRT [1]: 2.8 ± 0.61 h | half-life [1]: 1.11 ± 0.02 h
Structure (SMILES): COc1cccc2c1C(=O)c1c(O)c3c(c(O)c1C2=O)C[C@@](O)(C(=O)CO)C[C@@H]3O[C@H]1C[C@H](N)[C@H](O)[C@H](C)O1 [Doxorubicin]
cytotoxicity [2]: did not show any obvious cytotoxicity
